Experiments:
AuroraA-TPX2 = target: T1, AuroraA-TPX2 (Homo sapiens, UniProt O14965); test: AuroraA-TPX2 Homogeneous Time Resolved Fluorescent (HTRF) kinase assay; type: biochemical; details: average; given as class symbols; read-out: AurA/TP X2_ IC50_IP (Avg)
T1 construct: 20 µL of AuroraA-TPX2 KD GST; GST
T1 sequence (O14965 133-383 limits assumed): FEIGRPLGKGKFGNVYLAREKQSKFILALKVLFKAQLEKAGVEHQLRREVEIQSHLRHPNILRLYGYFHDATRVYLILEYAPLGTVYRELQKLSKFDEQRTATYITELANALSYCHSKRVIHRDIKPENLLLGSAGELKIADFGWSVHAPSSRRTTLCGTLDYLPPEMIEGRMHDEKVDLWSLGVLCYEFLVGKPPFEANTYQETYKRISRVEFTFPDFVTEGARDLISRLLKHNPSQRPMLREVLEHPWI
T1 sequence (Q9ULW0 1-43 partner limits assumed): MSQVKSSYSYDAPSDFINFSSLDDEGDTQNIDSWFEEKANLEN
In short: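 Aurora-A/TPX2 phosphorylates biotinylated PLK peptide (about 1 µM) with ATP for about 120 min in 60 mM HEPES pH 7.5, 10 mM MgCl2, 2 mM DTT. EDTA quench, overnight equilibration with Eu-anti-phosphoPLK antibody and SA-APC; HTRF read at 615/655 nm after 320 nm excitation.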

AuroraB = target: T2, AuroraB (Homo sapiens, UniProt Q96GD4); test: AuroraB Homogeneous Time Resolved Fluorescent (HTRF) kinase assay; type: biochemical; details: average; given as class symbols; read-out: AurB_ _IC50_IP (Avg)
T2 construct: 20 µL of AuroraB FL His; His
T2 sequence (Q96GD4 whole entry): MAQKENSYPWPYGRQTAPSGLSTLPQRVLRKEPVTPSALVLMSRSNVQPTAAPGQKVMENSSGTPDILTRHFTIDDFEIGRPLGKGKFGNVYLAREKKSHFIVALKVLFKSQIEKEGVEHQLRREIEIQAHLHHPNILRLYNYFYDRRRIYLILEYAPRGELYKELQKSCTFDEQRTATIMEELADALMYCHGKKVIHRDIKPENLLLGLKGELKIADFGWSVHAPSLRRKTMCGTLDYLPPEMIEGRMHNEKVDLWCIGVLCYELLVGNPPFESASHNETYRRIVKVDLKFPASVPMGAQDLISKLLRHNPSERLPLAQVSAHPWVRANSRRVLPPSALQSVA
In short: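 Full-length His-tagged AuroraB (400 pM) phosphorylates 0.1 µM biotinylated Histone H3 with 23 µM ATP (Km(app)) in HEPES pH 7.5 with Mg/Mn, about 90 min. EDTA-quenched; Eu-anti-phosphoHistoneH3 and SA-APC HTRF, 655/615 nm ratio as phosphorylation.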

[1] = tested on: phosphorylation of Histone H3; test: HeLa cell 1-hour phospho-histone assay; type: cell-based; details: Homo sapiens, HeLa, 1 h, HeLa cells, 1 hour; average; given as class symbols; read-out: pHH3 EC50_IP (Avg)
In short: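 HeLa cells were exposed to serially diluted compounds for 1 hour at 37 °C (0.5% DMSO final), then fixed, permeabilized and immunostained for phospho-histone H3 (Ser10) with Hoechst counterstain. High-content imaging scored the percentage of pHH3-positive cells.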

Row | Structure (SMILES) | IC50 (AuroraA-TPX2) [nM] | IC50 (AuroraB) [nM] | EC50 [1] [nM]
1 | Cc1cc(-c2ccccc2)nnc1Nc1ccc(Oc2ncccc2-c2ccnc(NCCCN3CCCCC3)n2)cc1 [compound 424, 4-methyl-6-phenyl-N-(4-((3-(2-((3-(1-piperidinyl)propyl)amino)-4-pyrimidinyl)-2-pyridinyl)oxy)phenyl)-3-pyridazinamine] | ≤ 100 | ≤ 100 | 100 to 500
2 | CCN(CC)CCCNc1nccc(-c2cccnc2Oc2ccc(Nc3nnc(-c4ccccc4)cc3C)cc2)n1 [compound 426, N,N-diethyl-N'-(4-(2-((4-((4-methyl-6-phenyl-3-pyridazinyl)amino)phenyl)oxy)-3-pyridinyl)-2-pyrimidinyl)-1,3-propanediamine] | ≤ 100 | ≤ 100 | 100 to 500
3 | Nc1nccc(-c2cccnc2Oc2ccc(Nc3nnc(-c4ccccc4)cc3C(=O)O)cc2)n1 [compound 433, 3-((4-((3-(2-amino-4-pyrimidinyl)-2-pyridinyl)oxy)phenyl)amino)-6-phenyl-4-pyridazinecarboxylic acid] | 500 to 2500 | 500 to 2500 | 500 to 2500

More lines, now with the values ahead:

Row | IC50 (AuroraA-TPX2) [nM] | IC50 (AuroraB) [nM] | EC50 [1] [nM] | Structure (SMILES)
4 | ≤ 100 | ≤ 100 | 100 to 500 | Cc1cc(-c2ccccc2)nnc1Nc1ccc(Oc2ncccc2-c2ccnc(NCCCCN(C)C)n2)cc1 [compound 423, N,N-dimethyl-N'-(4-(2-((4-((4-methyl-6-phenyl-3-pyridazinyl)amino)phenyl)oxy)-3-pyridinyl)-2-pyrimidinyl)-1,4-butanediamine]
5 | ≤ 100 | ≤ 100 | 100 to 500 | Cc1cc(-c2ccccc2)nnc1Nc1ccc(Oc2ncccc2-c2ccnc(NCCCN3CCCC3)n2)cc1 [compound 425, 4-methyl-6-phenyl-N-(4-((3-(2-((3-(1-pyrrolidinyl)propyl)amino)-4-pyrimidinyl)-2-pyridinyl)oxy)phenyl)-3-pyridazinamine]
